In PMC12538393 (RSC Advances, 2025):

Tests used:
ACE = ACE (Homo sapiens, UniProt P12821); assay: In vitro ACE inhibitory activity, DOJINDO ACE Kit-WST reagent box; type: biochemical
hypertensive animals = details: snake venom peptide; cited from earlier work

ACE, sequence (P12821 30-1306, species assumed): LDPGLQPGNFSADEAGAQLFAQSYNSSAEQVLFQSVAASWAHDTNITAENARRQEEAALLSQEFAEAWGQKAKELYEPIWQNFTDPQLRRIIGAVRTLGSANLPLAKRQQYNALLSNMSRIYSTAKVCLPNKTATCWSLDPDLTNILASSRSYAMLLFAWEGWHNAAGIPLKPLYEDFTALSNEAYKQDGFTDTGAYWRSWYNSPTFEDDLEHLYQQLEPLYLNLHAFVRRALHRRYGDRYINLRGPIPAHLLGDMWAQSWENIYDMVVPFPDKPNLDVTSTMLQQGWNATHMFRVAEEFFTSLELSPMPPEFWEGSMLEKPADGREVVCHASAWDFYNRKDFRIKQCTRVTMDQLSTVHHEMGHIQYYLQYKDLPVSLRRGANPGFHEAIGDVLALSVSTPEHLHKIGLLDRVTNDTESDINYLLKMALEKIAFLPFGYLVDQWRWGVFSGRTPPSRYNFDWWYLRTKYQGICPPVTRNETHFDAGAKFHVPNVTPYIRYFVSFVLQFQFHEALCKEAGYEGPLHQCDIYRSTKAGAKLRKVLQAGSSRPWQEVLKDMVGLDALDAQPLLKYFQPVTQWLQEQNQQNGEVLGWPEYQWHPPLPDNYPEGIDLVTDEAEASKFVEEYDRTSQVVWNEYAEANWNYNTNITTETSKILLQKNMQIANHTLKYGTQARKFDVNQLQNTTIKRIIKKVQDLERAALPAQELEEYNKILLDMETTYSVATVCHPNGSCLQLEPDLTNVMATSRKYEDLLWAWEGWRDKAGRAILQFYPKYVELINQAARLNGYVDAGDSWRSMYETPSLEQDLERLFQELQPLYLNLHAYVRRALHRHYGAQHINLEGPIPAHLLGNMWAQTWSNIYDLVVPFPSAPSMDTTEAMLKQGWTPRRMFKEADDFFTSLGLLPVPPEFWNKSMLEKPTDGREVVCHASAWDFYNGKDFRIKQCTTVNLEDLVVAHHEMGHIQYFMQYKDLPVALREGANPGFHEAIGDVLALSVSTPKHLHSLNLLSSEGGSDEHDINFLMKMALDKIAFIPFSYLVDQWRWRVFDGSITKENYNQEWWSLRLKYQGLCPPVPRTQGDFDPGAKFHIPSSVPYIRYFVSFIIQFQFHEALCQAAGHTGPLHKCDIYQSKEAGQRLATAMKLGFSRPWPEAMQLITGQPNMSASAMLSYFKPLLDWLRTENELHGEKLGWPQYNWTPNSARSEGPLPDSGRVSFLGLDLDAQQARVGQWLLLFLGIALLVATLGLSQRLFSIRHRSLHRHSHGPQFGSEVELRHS

Substance	ACE-inhibitory activity, comparison in words (ACE)	antihypertensive effect for hypertensive animals (hypertensive animals)
H-Asp-Arg-Tyr-OH [D2]	potencies are still higher than that of compound 144	
H-Leu-Arg-Asn-OH [D1]	potencies are still higher than that of compound 144	
Pyr-Trp-Pro-Arg-Pro-Gln-Ile-Pro-Pro		best antihypertensive effect for hypertensive animals
